PMC5144071, “Functional characterization of aconitase X as a cis-3-hydroxy-L-proline dehydratase” (Scientific Reports, 2016)

How the values were obtained:
[1] = biological target: T1, PaLhpI (aconitase X, AcnX Type I; cis-3-hydroxy-L-proline dehydratase) (Pseudomonas aeruginosa, UniProt Q9I485); parameters: gene lhpI
[2] = biological target: T2, TrLhpI (AcnX Type I) (Trichoderma reesei, UniProt G0REW7); assay: substrate turnover by purified enzyme (amino acid analyzer, Lineweaver-Burk kinetics); assay type: biochemical
T2 construct: gene lhpI; N-terminal (His)6-tagged recombinant protein
T2 sequence (G0REW7 1-596): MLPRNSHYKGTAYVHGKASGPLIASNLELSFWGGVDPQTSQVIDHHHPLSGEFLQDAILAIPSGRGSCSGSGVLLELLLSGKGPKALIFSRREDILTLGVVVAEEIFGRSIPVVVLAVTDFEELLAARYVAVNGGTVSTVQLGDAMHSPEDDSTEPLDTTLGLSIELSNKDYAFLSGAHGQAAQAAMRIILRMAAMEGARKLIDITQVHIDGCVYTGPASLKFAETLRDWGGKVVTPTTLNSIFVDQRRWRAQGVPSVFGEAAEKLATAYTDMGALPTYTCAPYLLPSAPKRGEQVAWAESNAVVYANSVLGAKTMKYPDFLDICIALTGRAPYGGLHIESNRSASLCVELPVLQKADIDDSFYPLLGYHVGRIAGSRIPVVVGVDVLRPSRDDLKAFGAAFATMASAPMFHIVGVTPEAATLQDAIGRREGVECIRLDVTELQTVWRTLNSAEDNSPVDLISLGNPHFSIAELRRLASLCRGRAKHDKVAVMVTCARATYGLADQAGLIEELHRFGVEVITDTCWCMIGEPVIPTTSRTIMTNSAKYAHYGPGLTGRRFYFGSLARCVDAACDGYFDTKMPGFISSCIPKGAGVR

[3] = biological target: T3, AtLhpI (AcnX Type I) (Agrobacterium fabrum, UniProt A9CH00); assay: substrate turnover by purified enzyme, Lineweaver-Burk kinetics; assay type: biochemical
T3 construct: gene lhpI; N-terminal (His)6-tagged recombinant protein
T3 sequence (A9CH00 1-569): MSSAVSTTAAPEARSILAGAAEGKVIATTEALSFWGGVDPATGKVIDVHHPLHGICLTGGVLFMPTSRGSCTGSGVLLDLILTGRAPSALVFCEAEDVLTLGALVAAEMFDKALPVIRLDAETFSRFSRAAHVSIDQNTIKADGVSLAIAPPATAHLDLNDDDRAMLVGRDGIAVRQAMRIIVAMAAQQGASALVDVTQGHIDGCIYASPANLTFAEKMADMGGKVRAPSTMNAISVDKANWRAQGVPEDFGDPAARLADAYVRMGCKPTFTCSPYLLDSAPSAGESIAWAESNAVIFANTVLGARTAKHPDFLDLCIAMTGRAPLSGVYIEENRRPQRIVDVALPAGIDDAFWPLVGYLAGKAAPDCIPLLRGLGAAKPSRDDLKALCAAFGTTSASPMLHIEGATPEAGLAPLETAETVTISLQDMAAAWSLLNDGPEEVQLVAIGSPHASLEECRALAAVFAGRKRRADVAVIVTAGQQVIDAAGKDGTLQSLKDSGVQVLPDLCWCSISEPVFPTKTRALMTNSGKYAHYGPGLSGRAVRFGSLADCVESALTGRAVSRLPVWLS

[4] = biological target: T1, PaLhpI (aconitase X, AcnX Type I; cis-3-hydroxy-L-proline dehydratase); assay: substrate turnover by purified enzyme (HPLC/amino acid analyzer, 1H NMR, coupled assay); assay type: biochemical; parameters: gene lhpI; N-terminal (His)6-tagged recombinant protein
[5] = biological target: T1, PaLhpI (aconitase X, AcnX Type I; cis-3-hydroxy-L-proline dehydratase); assay: substrate turnover by purified enzyme (HPLC), coupled with reductase; assay type: biochemical; parameters: gene lhpI; N-terminal (His)6-tagged recombinant protein
[6] = biological target: T4, PaLhpL (Pseudomonas aeruginosa, UniProt Q9I489); assay: bifunctional dehydratase and 2-epimerase activity (details in supplement, Fig. S6); assay type: biochemical
T4 construct: gene lhpL
T4 sequence (Q9I489 1-344): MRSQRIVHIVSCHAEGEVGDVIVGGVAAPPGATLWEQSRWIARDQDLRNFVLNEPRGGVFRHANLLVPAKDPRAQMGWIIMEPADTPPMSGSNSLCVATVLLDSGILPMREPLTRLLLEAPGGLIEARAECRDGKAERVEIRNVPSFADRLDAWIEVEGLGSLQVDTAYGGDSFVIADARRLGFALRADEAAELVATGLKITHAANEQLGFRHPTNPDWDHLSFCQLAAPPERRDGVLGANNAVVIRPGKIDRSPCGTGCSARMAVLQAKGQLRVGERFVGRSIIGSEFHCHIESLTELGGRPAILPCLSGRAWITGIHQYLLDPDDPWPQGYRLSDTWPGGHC

T1 sequence (Q9I485 whole entry): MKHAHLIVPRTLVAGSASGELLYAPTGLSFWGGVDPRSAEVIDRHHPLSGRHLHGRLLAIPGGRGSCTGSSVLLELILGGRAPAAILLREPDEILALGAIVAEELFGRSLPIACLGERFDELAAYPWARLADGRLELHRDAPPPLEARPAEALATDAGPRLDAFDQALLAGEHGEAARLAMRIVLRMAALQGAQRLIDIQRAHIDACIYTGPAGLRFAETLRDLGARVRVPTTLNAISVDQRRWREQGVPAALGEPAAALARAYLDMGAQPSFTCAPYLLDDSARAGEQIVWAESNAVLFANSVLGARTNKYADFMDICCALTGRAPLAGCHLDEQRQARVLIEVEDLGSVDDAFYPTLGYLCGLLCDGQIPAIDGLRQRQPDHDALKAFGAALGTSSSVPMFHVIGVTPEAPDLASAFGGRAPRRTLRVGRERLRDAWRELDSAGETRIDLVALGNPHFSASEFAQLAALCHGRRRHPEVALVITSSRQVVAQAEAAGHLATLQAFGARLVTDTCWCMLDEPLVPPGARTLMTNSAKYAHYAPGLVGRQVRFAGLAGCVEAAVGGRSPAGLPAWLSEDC

With `O=C(O)c1ccc[nH]1` [pyrrole-2-carboxylate] the IC50 [1] was ~ 440-fold that of Cd^2+ (2.05 × 10^−3 mM).

In the case of `O=C(O)[C@H]1NCC[C@H]1O` [cis-3-hydroxy-L-proline], the “substrate turnover by purified enzyme (amino acid analyzer, Lineweaver-Burk kine)” value [2] is reported as 3.75 µmol/min/mg, the “substrate turnover by purified enzyme, Lineweaver-Burk kinetics” value [3] is reported as “among eight proline derivatives (Fig. S1), only cis-3-hydroxy-L-proline was consumed in a time-dependent manner by both proteins” and the “substrate turnover by purified enzyme (HPLC/amino acid analyzer, 1H NMR, coupled)” value [4] is reported as 39.5 µmol/min/mg.

`O=C(O)[C@H]1NC[C@@H](O)[C@H]1O` [2,3-cis-3,4-cis-3,4-dihydroxy-L-proline] was tested, and the “substrate turnover by purified enzyme (HPLC), coupled with reductase” value [5] was 0.130 µmol/min/mg.

In the case of `O=C(O)[C@H]1NCC[C@@H]1O` [trans-3-hydroxy-L-proline], the “bifunctional dehydratase and 2-epimerase activity (details in supplement, Fig. S)” value [6] is reported as “PaLhpL gene (PA1255; Fig. 1d) in the L-hydroxyproline gene cluster encodes a bifunctional dehydratase and 2-epimerase toward trans-3-hydroxy-L-proline”.
